According to a compilation of properties of binary mixtures (doi:10.1007/s10953-010-9507-z):

Experiment: xn = mol fraction of the nth substance listed
Settings: 298.15 K, 101 kPa

| SMILES | viscosity (x1 = 0.0522) [mPa·s] | viscosity (x1 = 0.1818) [mPa·s] | viscosity (x1 = 0.2982) [mPa·s] | viscosity (x1 = 0.4204) [mPa·s] | viscosity (x1 = 0.4752) [mPa·s] | viscosity (x1 = 0.5937) [mPa·s] | viscosity (x1 = 0.6953) [mPa·s] | viscosity (x1 = 0.7954) [mPa·s] | viscosity (x1 = 0.8933) [mPa·s] | viscosity (x2 = 0.0793) [mPa·s] | viscosity (x2 = 0.1393) [mPa·s] | viscosity (x2 = 0.2058) [mPa·s] | viscosity (x2 = 0.2578) [mPa·s] | viscosity (x2 = 0.345) [mPa·s] | viscosity (x2 = 0.384) [mPa·s] | viscosity (x2 = 0.4122) [mPa·s] | viscosity (x2 = 0.5622) [mPa·s] | viscosity (x2 = 0.688) [mPa·s] | viscosity (x2 = 0.7967) [mPa·s] | viscosity (x2 = 0.8984) [mPa·s] |
| --- | --- | --- | --- | --- | --- | --- | --- | --- | --- | --- | --- | --- | --- | --- | --- | --- | --- | --- | --- | --- |
| CCOC(C)=O + CCCC[n+]1ccn(C)c1.O=S(=O)([N-]S(=O)(=O)C(F)(F)F)C(F)(F)F | 44.4 | 30.6 | 21.1 | 13.67 | 10.91 | 6.54 | 3.93 | 2.21 | 1.105 | – | – | – | – | – | – | – | – | – | – | – |
| CCCC[n+]1ccn(C)c1.O=S(=O)([N-]S(=O)(=O)C(F)(F)F)C(F)(F)F + CCO | – | – | – | – | – | – | – | – | – | 42.6 | 36.8 | 31.4 | 27.3 | 21.6 | 19.4 | 17.91 | 11.15 | 7.11 | 4.36 | 2.46 |
